Patent publication US20260223845A1, “METHOD FOR PRODUCING TRYPTOPHAN DECOMPOSITION PRODUCT, METHOD FOR PRODUCING FORMYLKYNURENINE, METHOD FOR PRODUCING KYNURENINE, METHOD FOR PRODUCING TRYPTOPHAN RADICAL-CONTAINING AQUEOUS SOLUTION, AND BACTERICIDAL AQUEOUS SOLUTION” (NATIONAL UNIVERSITY CORPORATION TOKAI NATIONAL HIGHER …, priority 2023, published 2026)
Read-outs that look alike come from different tables or passages of the source.

How the values were obtained:
Escherichia coli = test: Bactericidal effect test of redissolved HPLC fractions on Escherichia coli suspension, colony counting method; format: cell-based; details: component redissolved in ultrapure water, liquid temperature 24° C., mixed with Escherichia coli suspension, counted after 10 minutes; FIG. 5
Procedure: Each aqueous solution (liquid temperature: 24° C.) prepared by redissolving each component in ultrapure water was mixed with a suspension of Escherichia coli, and after 10 minutes, the viable cell count of Escherichia coli was measured by a colony counting method. The viable cell count of Escherichia coli was also measured in the same manner for the oxygen radical-unirradiated aqueous solution.

[1] = Bactericidal effect of oxygen radical-irradiated tryptophan-containing aqueous solution (previous research of the inventors; inference in Experimental Examples 1 to 3); format: cell-based; details: inferred from inactive FKYN, KYN, L-Trp fractions and ESR detection of Trp⋅
Source text: Therefore, in this experimental example, an attempt was made to detect Trp⋅ by electron spin resonance (ESR) spectroscopy.
Here, as shown in FIG. 12 (b), it is known that Trp. is generated by the reaction between Trp and OH⋅. […] In the formulae in FIG. 12(b), X is indicated because it is thought that OH extracts H from Trp and X becomes H2O, but what is actually formed has not been accurately confirmed at this stage.
From the above-described Experimental Examples 1 to 3, it was confirmed that the substances primarily generated by irradiating the tryptophan-containing aqueous solution with oxygen radicals are FKYN and KYN. In addition, Trp⋅, considered to be a precursor of FKYN and KYN, was detected by ESR measurement from the oxygen radical-irradiated aqueous solution. Based on the above, it is considered that short-lived precursors of FKYN and KYN (Trp⋅ and Trp peroxide) are also expressed in large quantities by the oxygen radical irradiation in terms of total generation concentration, and it can be said that the above-described precursors are bactericidal substances.

[2] = maintaining a temperature of 15° C. or lower; cited from earlier work
[3] = Lifespan of tryptophan radical in aqueous solution; format: physicochemical; details: in oxygen radical-irradiated aqueous solution
Source text: The precursor generated from Trp may be composed solely of Trp⋅, may be composed solely of Trp peroxide, or may include both Trp⋅ and Trp peroxide. […] Trp⋅ can be detected by electron spin resonance (ESR) spectroscopy. FKYN is generated by cleavage of a pyrrole ring in Trp peroxide. This cleavage occurs naturally in an aqueous solution. In other words, Trp peroxide decomposes on its own. Furthermore, since the generation of FKYN has been confirmed in the present disclosure, it is inferred that Trp peroxide is also generated, despite having a short lifespan. KYN is generated by the decomposition of FKYN.

Compound	bactericidal effect (viable cell count of Escherichia coli) (Escherichia coli)	bactericidal effect [1]	lifespan [2]	lifespan [3]
N[C@@H](Cc1c[nH]c2ccccc12)C(=O)O [L-Trp, L-tryptophan]	not bactericidal substances	–	–	–
NC(CC(=O)c1ccccc1NC=O)C(=O)O (stereo not drawn) [component P1, formylkynurenine]	not bactericidal substances	–	–	–
Nc1ccccc1C(=O)CC(N)C(=O)O (stereo not drawn) [component P2, kynurenine]	not bactericidal substances	–	–	–
tryptophan radical [Trp⋅]	–	has a bactericidal effect	can be extended	short-lived substance
